Reference: paper PMC5814585, “Modulators of actin-myosin dissociation: basis for muscle type functional differences during fatigue” (American Journal of Physiology - Cell Physiology, 2017)
Values belong to the compound of their own block, whether it stands above or below them.

What was measured:
[1] = test system: actin.PsoS1 (rabbit psoas myosin S1 bound to pyrene-actin); experiment: ATP-induced dissociation of pyr.actin.S1, stopped flow, pyrene fluorescence (fast, psoas); type: biochemical; conditions: for kobs of ATP-induced dissociation: 25 µM ATP; for activation energy (Ea) of K1k+2: Pso
Method: (§1) Myosin was prepared from the rabbit psoas (for fast MyHC-II) and the bovine masseter muscle (for slow MyHC-I) according to Margossian and Lowey ([41]), and was subsequently digested to subfragment 1 (S1) with chymotrypsin as described by Weeds and Taylor ([57]) which removes the regulatory light chain region.
(§2) Actin was prepared from rabbit muscle as described by Spudich & Watt ([52]) and labeled with pyrene iodoacetamide to give pyrene-labeled actin as described by Criddle et al. ([15]). Protein stocks of S1 and of pyrene-labeled actin were stored at 4°C and were used for up to 2 wk. In the text herein, reference to actin implies pyrene-labeled actin.
(§3) Stopped-flow experiments were performed essentially as described previously ([4]) using a HiTech Scientific SF-61DX2 stopped-flow system; 4–5 transients were acquired for each ATP transient (Kinetic Studio suite). The dead time of the equipment was 0.002 s. A wide temperature range (5–45°C) for measurements was available because of a new adaptation of the standard stopped-flow machine [see Ref. [56]). Briefly, the samples were held at room temperature (20°C) and then passed through a heat exchanger, at the temperature required for the measurement, just before entering the mixing chamber/observation chamber of the stopped flow. The samples were only exposed to the temperature of the measurement for a few seconds, thus allowing measurements of proteins under conditions where they are not usually stable for long.
(§4) The ATP-induced dissociation rate of actin.S1 was measured in the stopped flow by mixing a fixed concentration of pyr.actin.S1 complex (end concentration 0.25 µM) with excess ATP and monitoring fluorescence transients from the pyrene-labeled actin [excitation at 365 nm, emission through a KV389 nm cutoff filter (Schott, Mainz, Germany)]. Details of the kinetic analysis are given under Data Fitting and Interpretation Approach.
(§5) The averaged transients were fitted with a single (Eqn 1) or, if needed, a double exponential equation (Eqn 2):(1)) Ft=ΔF·e^(^−kobs·t)+F∞ or(2)) Ft=ΔF(1)·e^(^−kobs(1)·t)+ΔF(2)·e^(^−kobs(2)·t)+F∞ where Ft is the observed fluorescence at time t, F∞ is the fluorescence at the end of the transient (t = ∞) and ΔF is the total change of fluorescence observed. […] A plot of [ATP] vs. kobs was used to derive the values of K1 and k+2 (using Origin software version 6.0), as defined in Fig. 1 and Eqn 3.
(§6) The values of –Ea/R or or ΔH°/R were derived from the slopes.

[2] = molecular target: T1, actin.MassS1 (bovine masseter myosin S1 bound to pyrene-actin) (Bos taurus, UniProt Q9BE39); experiment: ATP-induced dissociation of pyr.actin.S1, stopped flow, pyrene fluorescence (slow, masseter); type: biochemical; set-up: reduction of amplitude of the dissociation reaction in the presence of phosphate / increase of activation energy by phosphate / activation energy (Ea) of K1k+2: dose or concentration left out as unconfirmed; conditions: for kobs of ATP-induced dissociation: 25 µM ATP; for activation energy (Ea) of K1k+2: Mass
T1 construct: from tissue; host or cells: bovine masseter muscle (myosin); rabbit muscle (actin)
Method: as §1, §2, §3
as §4, with “([…])” for “(end concentration 0.25 µM)”
as §5, §6

actin.MassS1 = molecular target: T2, actin.MassS1 (Bos taurus, UniProt Q9BE39); experiment: ADP release rate constant (k-AD), ADP displacement by excess ATP; type: biochemical, bovine; set-up: effect of Pi on kobs of ADP release / increase in kobs of ADP release in the presence of phosphate / activation energy (Ea) of k−AD (ADP release): dose or concentration left out as unconfirmed; conditions: […] mM Pi
T2 construct: from tissue; host or cells: bovine masseter muscle (myosin); rabbit muscle (actin)
Method: Two types of myosins were studied which are known to differ in their dissociation constant for nucleotides ([5], [51]). The rate constant for the release of ADP (k−ADP) is relatively slow for masseter S1 and can easily be measured in an ADP displacement experiment. This step is very fast for a fast muscle isoform and too fast to measure by current equipment. Briefly, actin.^MassS1 saturated with 75 µM of ADP (A.M.D complex) was mixed with a large excess of ATP (8 mM) in the stopped flow. Then the kobs values, fitted to a single exponential equation (Eqn 1) defined the rate constant by which ADP is released by the ternary A.M.D complex (k−AD).
The temperature dependence of the above studied biochemical steps K1k+2, KADP, KPi, and KADP+Pi data were plotted as the natural logarithm of the measured parameter against the reciprocal of temperature in degrees Kelvin (1/T °K) and fitted with linear regression using the Arrhenius (rate constants) or Van’t Hoff (equilibrium constants) equations(7)) lnK1k+2=ln(A)−Ea/RT (8)) lnKeq=ΔS°/R−ΔH°/RT where Ea stands for activation energy, R is the gas constant, and A is a preexponential factor. The values of –Ea/R or or ΔH°/R were derived from the slopes.

- kobs of ATP-induced dissociation ([2]; 0.5 µM pyrAct.MassS1, pH 7.0, 5°C): 26.7 s⁻¹
- kobs of ATP-induced dissociation ([2]; 0.5 µM pyrAct.MassS1, pH 7.0, 25°C): 46.7 s⁻¹
- kobs of ATP-induced dissociation ([2]; 0.5 µM pyrAct.MassS1, pH 7.0, 35°C): 64.9 s⁻¹
- kobs of ATP-induced dissociation ([2]; 0.5 µM pyrAct.MassS1, pH 7.0, […]°C): 36.1 s⁻¹
- kobs of ATP-induced dissociation ([2]; zero ADP, 20°C, pH 7.0): 37.5 s⁻¹
- activation energy (Ea) of K1k+2 ([2]; pH 6.2, + […] mM Pi): 7.34 ± 0.17 kcal/mol
- activation energy (Ea) of K1k+2 ([2]; pH 6.2, no Pi, 5–43°C): 5.69 ± 0.263 kcal/mol
- activation energy (Ea) of K1k+2 ([2]; pH 7.0, + […] mM Pi): 7.15 ± 0.263 kcal/mol
- activation energy (Ea) of K1k+2 ([2]; pH 7.0, no Pi, 5–43°C): 6.14 ± 0.335 kcal/mol
- activation energy of the dissociation rate constant ([2]; masseter, in the presence of phosphate, irrespective of pH): 7.17 ± 0.24 kcal/mol
Structure (SMILES): Nc1ncnc2c1ncn2[C@@H]1O[C@H](COP(=O)(O)OP(=O)(O)OP(=O)(O)O)[C@@H](O)[C@H]1O [ATP]
- kobs of ATP-induced dissociation ([1]; 0.5 µM pyr-act.PsoS1, pH 7.0, 5°C): 84.8 s⁻¹
- kobs of ATP-induced dissociation ([1]; 0.5 µM pyr-act.PsoS1, pH 7.0, 25°C): 208.5 s⁻¹
- kobs of ATP-induced dissociation ([1]; 0.5 µM pyr-act.PsoS1, pH 7.0, 35°C): 296.9 s⁻¹
- kobs of ATP-induced dissociation ([1]; 0.5 µM pyr-act.PsoS1, pH 7.0, 43°C): 374.4 s⁻¹
- kobs of ATP-induced dissociation ([1]; 0.5 µM pyr-act.PsoS1, pH 7.0, […]°C): 136.2 s⁻¹
- kobs of ATP-induced dissociation ([1]; zero ADP, 20°C, pH 7.0): 87.7 s⁻¹
- activation energy (Ea) of K1k+2 ([1]; pH 6.2, + 30 mM Pi): 9.37 ± 0.382 kcal/mol
- activation energy (Ea) of K1k+2 ([1]; pH 6.2, no Pi, 5–43°C): 7 ± 0.19 kcal/mol
- activation energy (Ea) of K1k+2 ([1]; pH 7.0, + 30 mM Pi): 9.01 ± 0.287 kcal/mol
- activation energy (Ea) of K1k+2 ([1]; pH 7.0, no Pi, 5–43°C): 6.76 ± 0.19 kcal/mol
- activation energy of the dissociation rate constant ([1]; psoas, in the presence of phosphate, irrespective of pH): 9.08 ± 0.24 kcal/mol

- increase in kobs of ADP release in the presence of phosphate (actin.MassS1; pH 6.2): 30–50%
- effect of Pi on kobs of ADP release (actin.MassS1; pH 7.0): little effect
- reduction of amplitude of the dissociation reaction in the presence of phosphate ([2]; MassS1, […] mM Pi): 50%
- increase of activation energy by phosphate ([2]; masseter, […] mM Pi vs no Pi): about 5 kJ/mol
Structure (SMILES): O=P(O)(O)O [Pi, inorganic phosphate]
- reduction of amplitude of the dissociation reaction in the presence of phosphate ([1]; PsoS1, 30 mM Pi): 50%
- increase of activation energy by phosphate ([1]; PsoS1, both pH values, 30 mM Pi vs no Pi): about 10 kJ/mol
